What was measured:
Type in all cases: biochemical
Kdr = Kdr (Homo sapiens, UniProt P35968); assay: Kinase activity assay, Kdr; details: under the test conditions employed; read-out: activity toward kinase Kdr, IC50
Method: (§1) The effect of potential modulators of kinase activity of c-kit and other kinases can be measured in a variety of different assays known in the art, e.g., biochemical assays, cell-based assays, and in vivo testing (e.g. model system testing). Such in vitro and/or in vivo assays and tests can be used in the present invention. As an exemplary kinase assay, the kinase activity of c-kit or Fms is measured in AlphaScreening (Packard BioScience). Assays for the activity of various kinases are described, for example, in U.S. patent application Ser. No. 11/473,347 (see also, PCT publication WO2007002433), the disclosure of which is hereby incorporated by reference.

Jnk1 = Jnk1 (Homo sapiens, UniProt P45983); assay: Kinase activity assay, Jnk1; details: under the test conditions employed; read-out: activity toward kinase Jnk1, IC50
Method: as §1

Kit = Kit (Homo sapiens, UniProt P10721); assay: Kinase activity assay, Kit; details: under the test conditions employed; read-out: activity toward kinase Kit, IC50
Method: as §1

B-Raf V600E/T529I = B-Raf V600E/T529I (Homo sapiens, UniProt P15056, T529I/V600E); assay: Kinase activity assay, B-Raf V600E/T529I; details: under the test conditions employed; read-out: activity toward kinase B-Raf V600E/T529I, IC50
Method: as §1

B-Raf V600E = B-Raf V600E (Homo sapiens, UniProt P15056, V600E); assay: Kinase activity assay, B-Raf V600E; details: under the test conditions employed; read-out: activity toward kinase B-Raf V600E, IC50
Method: as §1

B-Raf = B-Raf (Homo sapiens, UniProt P15056); assay: Kinase activity assay, B-Raf; details: under the test conditions employed; read-out: activity toward kinase B-Raf, IC50
Method: as §1

Src = Src (Homo sapiens, UniProt P12931); assay: Kinase activity assay, Src; details: under the test conditions employed; read-out: activity toward kinase Src, IC50
Method: as §1

c-Raf-1 = c-Raf-1 (Homo sapiens, UniProt P04049); assay: Kinase activity assay, c-Raf-1; details: under the test conditions employed; read-out: activity toward kinase c-Raf-1, IC50
Method: as §1

Flt1 = Flt1 (Homo sapiens, UniProt P17948); assay: Kinase activity assay, Flt1; details: under the test conditions employed; read-out: activity toward kinase Flt1, IC50
Method: as §1

Fms = Fms (Homo sapiens, UniProt P07333); assay: Kinase activity assay, Fms; details: under the test conditions employed; read-out: activity toward kinase Fms, IC50
Method: as §1

Btk = Btk (Homo sapiens, UniProt Q06187); assay: Kinase activity assay, Btk; details: under the test conditions employed; read-out: activity toward kinase Btk, IC50
Method: as §1

Sequence of Src (P12931 whole entry): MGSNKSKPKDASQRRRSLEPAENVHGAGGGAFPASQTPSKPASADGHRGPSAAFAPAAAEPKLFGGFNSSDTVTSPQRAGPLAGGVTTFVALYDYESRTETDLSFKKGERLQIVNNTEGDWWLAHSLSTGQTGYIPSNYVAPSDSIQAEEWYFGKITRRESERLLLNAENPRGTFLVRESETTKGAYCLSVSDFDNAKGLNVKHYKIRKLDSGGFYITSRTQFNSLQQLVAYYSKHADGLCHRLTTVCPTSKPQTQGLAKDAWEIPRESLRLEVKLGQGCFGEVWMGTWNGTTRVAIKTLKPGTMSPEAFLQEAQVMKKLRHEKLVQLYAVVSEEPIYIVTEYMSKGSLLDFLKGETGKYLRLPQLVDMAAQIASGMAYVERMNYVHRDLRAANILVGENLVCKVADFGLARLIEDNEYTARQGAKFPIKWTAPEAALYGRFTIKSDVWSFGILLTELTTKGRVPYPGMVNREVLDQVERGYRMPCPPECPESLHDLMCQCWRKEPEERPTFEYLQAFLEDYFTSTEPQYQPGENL
Sequence of Kit (P10721 26-976): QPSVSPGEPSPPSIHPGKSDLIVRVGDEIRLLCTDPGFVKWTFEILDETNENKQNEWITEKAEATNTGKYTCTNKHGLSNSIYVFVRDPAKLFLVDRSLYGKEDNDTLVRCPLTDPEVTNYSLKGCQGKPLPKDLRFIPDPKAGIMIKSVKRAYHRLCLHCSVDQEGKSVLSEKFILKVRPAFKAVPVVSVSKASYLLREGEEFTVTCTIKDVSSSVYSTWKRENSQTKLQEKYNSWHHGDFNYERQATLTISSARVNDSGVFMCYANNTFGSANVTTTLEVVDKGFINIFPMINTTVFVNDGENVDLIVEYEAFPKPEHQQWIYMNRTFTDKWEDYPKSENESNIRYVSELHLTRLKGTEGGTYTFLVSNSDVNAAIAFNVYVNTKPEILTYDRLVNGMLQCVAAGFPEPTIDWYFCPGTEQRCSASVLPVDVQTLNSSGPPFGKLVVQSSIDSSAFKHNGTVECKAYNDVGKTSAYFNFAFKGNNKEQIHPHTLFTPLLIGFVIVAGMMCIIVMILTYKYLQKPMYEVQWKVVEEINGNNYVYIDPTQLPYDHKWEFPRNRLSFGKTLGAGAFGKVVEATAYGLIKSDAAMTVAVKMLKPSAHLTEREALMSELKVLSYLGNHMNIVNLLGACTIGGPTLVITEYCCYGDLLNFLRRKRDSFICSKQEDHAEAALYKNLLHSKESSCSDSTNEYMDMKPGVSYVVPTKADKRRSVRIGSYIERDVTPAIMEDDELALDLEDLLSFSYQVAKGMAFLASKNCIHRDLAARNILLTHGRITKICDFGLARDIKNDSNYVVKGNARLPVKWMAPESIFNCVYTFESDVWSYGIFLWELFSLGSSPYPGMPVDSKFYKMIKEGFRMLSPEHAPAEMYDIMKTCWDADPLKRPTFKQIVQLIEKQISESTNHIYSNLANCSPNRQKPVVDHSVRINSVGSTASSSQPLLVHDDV
Sequence of B-Raf V600E (P15056 whole entry V600E): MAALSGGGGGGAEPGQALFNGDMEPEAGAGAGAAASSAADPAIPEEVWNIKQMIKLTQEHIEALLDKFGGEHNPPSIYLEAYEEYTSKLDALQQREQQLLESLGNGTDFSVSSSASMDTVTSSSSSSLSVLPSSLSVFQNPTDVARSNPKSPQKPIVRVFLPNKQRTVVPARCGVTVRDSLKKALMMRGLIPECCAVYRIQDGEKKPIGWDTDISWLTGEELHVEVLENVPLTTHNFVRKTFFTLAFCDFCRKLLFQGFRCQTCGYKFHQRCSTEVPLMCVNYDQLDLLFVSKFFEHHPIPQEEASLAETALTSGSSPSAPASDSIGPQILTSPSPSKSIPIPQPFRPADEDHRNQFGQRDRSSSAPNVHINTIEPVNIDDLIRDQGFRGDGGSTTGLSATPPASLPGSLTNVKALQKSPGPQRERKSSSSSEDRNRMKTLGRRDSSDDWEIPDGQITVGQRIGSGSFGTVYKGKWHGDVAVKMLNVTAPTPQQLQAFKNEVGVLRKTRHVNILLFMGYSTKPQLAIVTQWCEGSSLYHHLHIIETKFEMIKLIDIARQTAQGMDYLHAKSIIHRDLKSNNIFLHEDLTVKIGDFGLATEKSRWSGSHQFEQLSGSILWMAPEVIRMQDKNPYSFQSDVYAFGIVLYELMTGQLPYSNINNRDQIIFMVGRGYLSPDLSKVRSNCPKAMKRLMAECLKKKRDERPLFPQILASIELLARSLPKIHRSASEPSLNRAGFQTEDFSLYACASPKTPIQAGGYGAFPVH
Sequence of Kdr (P35968 20-1356): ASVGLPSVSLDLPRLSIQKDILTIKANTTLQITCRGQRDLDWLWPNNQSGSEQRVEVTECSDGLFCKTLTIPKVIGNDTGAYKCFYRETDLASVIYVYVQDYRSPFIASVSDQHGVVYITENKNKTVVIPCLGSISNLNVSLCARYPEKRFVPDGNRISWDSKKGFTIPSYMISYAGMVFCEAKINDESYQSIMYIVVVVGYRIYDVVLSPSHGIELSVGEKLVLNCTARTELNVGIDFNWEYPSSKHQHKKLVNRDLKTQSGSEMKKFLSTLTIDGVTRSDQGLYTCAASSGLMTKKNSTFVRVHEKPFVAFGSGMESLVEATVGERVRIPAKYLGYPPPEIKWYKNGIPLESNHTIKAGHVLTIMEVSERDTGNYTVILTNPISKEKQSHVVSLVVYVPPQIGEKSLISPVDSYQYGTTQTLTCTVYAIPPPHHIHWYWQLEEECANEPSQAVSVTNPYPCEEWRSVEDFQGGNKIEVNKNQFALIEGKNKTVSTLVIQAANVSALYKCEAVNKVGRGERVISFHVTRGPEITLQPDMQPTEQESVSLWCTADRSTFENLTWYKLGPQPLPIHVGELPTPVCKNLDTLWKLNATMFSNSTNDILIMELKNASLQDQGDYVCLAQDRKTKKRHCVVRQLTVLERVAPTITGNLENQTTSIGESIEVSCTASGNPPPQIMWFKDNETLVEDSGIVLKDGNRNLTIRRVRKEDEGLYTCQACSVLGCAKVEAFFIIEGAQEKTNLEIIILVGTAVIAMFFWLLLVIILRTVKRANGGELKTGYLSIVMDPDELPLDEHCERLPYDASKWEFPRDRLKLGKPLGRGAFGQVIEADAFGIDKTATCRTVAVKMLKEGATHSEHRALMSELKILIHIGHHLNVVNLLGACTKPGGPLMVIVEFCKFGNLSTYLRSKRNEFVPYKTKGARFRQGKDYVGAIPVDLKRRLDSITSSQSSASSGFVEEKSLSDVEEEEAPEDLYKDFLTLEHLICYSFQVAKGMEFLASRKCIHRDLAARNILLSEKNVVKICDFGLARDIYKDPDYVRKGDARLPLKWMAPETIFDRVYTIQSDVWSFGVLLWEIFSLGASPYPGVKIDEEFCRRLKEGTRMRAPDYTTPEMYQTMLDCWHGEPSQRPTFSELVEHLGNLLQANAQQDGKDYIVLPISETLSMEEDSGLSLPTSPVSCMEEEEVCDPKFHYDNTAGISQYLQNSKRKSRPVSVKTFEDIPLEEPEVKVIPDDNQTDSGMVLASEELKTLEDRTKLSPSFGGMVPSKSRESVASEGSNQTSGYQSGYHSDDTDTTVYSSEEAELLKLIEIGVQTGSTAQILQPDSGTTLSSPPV
Sequence of Fms (P07333 20-972): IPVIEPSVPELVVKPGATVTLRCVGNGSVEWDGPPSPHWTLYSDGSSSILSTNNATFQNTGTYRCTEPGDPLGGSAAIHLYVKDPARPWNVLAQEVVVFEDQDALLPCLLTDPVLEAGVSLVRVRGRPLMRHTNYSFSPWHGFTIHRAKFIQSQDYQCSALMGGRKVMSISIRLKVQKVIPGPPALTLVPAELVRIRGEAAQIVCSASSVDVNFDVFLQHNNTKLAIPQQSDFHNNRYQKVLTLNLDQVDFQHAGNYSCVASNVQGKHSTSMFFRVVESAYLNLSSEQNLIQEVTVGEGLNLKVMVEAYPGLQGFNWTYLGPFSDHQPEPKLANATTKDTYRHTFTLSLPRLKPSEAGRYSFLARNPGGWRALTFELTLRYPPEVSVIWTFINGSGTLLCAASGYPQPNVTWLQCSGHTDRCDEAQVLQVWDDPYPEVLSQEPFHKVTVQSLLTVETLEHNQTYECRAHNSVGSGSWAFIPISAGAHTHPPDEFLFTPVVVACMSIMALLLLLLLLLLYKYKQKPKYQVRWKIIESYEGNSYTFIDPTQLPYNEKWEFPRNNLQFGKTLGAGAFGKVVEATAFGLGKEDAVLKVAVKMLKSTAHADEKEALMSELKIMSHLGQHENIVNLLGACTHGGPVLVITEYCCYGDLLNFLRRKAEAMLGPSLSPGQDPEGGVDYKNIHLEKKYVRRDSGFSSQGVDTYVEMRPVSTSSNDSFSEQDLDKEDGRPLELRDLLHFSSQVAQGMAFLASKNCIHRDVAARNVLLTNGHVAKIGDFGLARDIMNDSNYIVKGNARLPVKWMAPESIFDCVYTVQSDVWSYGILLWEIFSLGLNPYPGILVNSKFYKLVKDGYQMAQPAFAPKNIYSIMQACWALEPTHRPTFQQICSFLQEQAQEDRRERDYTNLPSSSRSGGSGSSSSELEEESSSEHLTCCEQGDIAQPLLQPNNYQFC
Sequence of B-Raf (P15056 whole entry): as the sequence (P15056 whole entry V600E) above, with E600V counted along it
Sequence of Jnk1 (P45983 whole entry): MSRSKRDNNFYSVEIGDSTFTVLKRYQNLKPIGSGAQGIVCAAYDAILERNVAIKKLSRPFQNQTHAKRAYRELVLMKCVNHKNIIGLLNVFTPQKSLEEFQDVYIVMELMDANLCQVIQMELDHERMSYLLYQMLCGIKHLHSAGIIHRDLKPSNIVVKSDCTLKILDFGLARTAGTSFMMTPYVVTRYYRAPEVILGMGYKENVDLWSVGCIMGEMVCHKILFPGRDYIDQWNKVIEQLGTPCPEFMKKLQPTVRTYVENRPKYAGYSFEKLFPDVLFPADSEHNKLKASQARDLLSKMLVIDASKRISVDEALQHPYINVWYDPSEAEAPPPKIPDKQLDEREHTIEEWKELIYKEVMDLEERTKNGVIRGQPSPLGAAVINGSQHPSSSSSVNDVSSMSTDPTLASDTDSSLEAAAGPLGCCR
Sequence of B-Raf V600E/T529I (P15056 whole entry T529I/V600E): as the sequence (P15056 whole entry V600E) above, with T529I counted along it

| IC50 (Kdr) [µM] | IC50 (Kit) [µM] | IC50 (B-Raf V600E/T529I) [µM] | IC50 (B-Raf V600E) [µM] | IC50 (B-Raf) [µM] | IC50 (Fms) [µM] | Compound | also measured |
| --- | --- | --- | --- | --- | --- | --- | --- |
| ≤ 10 | ≤ 10 | – | – | – | – | c1cc2cc(OC3CCCC3)cnc2[nH]1 [P-0001, 5-cyclopentyloxy-1H-pyrrolo[2,3-b]pyridine] | IC50 (Jnk1): ≤ 10 µM |
| ≤ 10 | ≤ 10 | – | – | – | – | c1ccc(COc2cnc3[nH]ccc3c2)cc1 [P-0002, 5-(benzyloxy)-1H-pyrrolo[2,3-b]pyridine] | IC50 (Jnk1): ≤ 10 µM |
| ≤ 10 | – | – | – | – | – | COc1cccc(COc2cnc3[nH]ccc3c2)c1 [P-0003, 5-(3-methoxybenzyloxy)-1H-pyrrolo[2,3-b]pyridine] | – |
| – | – | ≤ 10 | – | – | – | COc1ccc(COc2cnc3[nH]ccc3c2)c(OC)c1 [P-0008, 5-(2,4-dimethoxybenzyloxy)-1H-pyrrolo[2,3-b]pyridine] | – |
| – | – | – | ≤ 10 | ≤ 10 | – | COCCOc1cnc2[nH]ccc2c1 [P-0009, 5-(2-methoxyethoxy)-1H-pyrrolo[2,3-b]pyridine] | – |
| ≤ 10 | – | – | – | – | – | FC(F)Oc1ccc(COc2cnc3[nH]ccc3c2)cc1 [P-0014, 5-(4-(difluoromethoxy)benzyloxy)-1H-pyrrolo[2,3-b]pyridine] | – |
| – | – | – | ≤ 10 | ≤ 10 | – | c1cc2cc(OCC3CCOCC3)cnc2[nH]1 [P-0019, 5-((tetrahydro-2H-pyran-4-yl)methoxy)-1H-pyrrolo[2,3-b]pyridine] | – |
| – | – | – | – | ≤ 10 | – | c1ccc(CN2CC[C@H](Oc3cnc4[nH]ccc4c3)C2)cc1 [P-0026, 5-((S)-1-benzylpyrrolidin-3-yloxy)-1H-pyrrolo[2,3-b]pyridine] | – |
| ≤ 10 | ≤ 10 | ≤ 10 | ≤ 10 | ≤ 10 | ≤ 10 | CCCS(=O)(=O)Nc1ccc(F)c(C(=O)c2c[nH]c3ncc(OC4CCCC4)cc23)c1F [P-0033, propane-1-sulfonic acid [3-(5-cyclopentyloxy-1H-pyrrolo[2,3-b]pyridine-3-carbonyl)-2,4-difluoro-phenyl]-amide] | IC50 (Src): ≤ 10 µM; IC50 (c-Raf-1): ≤ 10 µM; IC50 (Flt1): ≤ 10 µM; IC50 (Jnk1): ≤ 10 µM |
| ≤ 10 | – | ≤ 10 | ≤ 10 | ≤ 10 | – | CCCS(=O)(=O)Nc1ccc(F)c(C(=O)c2c[nH]c3ncc(OCc4ccccc4)cc23)c1F [P-0034, Propane-1-sulfonic acid [3-(5-benzyloxy-1H-pyrrolo[2,3-b]pyridine-3-carbonyl)-2,4-difluoro-phenyl]-amide] | IC50 (c-Raf-1): ≤ 10 µM; IC50 (Flt1): ≤ 10 µM |
| ≤ 10 | ≤ 10 | – | – | – | ≤ 10 | c1ccc(Oc2cnc3[nH]ccc3c2)cc1 [P-0035, 5-phenoxy-1H-pyrrolo[2,3-b]pyridine] | – |
| ≤ 10 | ≤ 10 | – | – | – | ≤ 10 | O=C(c1ccc(Cl)cc1Cl)c1c[nH]c2ncc(Oc3ccccc3)cc12 [P-0036, (2,4-dichloro-phenyl)-(5-phenoxy-1H-pyrrolo[2,3-b]pyridin-3-yl)-methanone] | IC50 (Btk): ≤ 10 µM |
| ≤ 10 | ≤ 10 | – | – | – | ≤ 10 | Clc1ccc(Cc2c[nH]c3ncc(Oc4ccccc4)cc23)c(Cl)c1 [P-0037, 3-(2,4-dichloro-benzyl)-5-phenoxy-1H-pyrrolo[2,3-b]pyridine] | – |
| ≤ 10 | – | – | – | – | – | CS(=O)(=O)c1ccc(Oc2cnc3[nH]cc(C(=O)c4ccc(F)cc4Cl)c3c2)cc1 [P-0038, (2-Chloro-4-fluoro-phenyl)-[5-(4-methanesulfonyl-phenoxy)-1H-pyrrolo[2,3-b]pyridin-3-yl]-methanone] | IC50 (Flt1): ≤ 10 µM |
| ≤ 10 | ≤ 10 | ≤ 10 | – | – | ≤ 10 | O=C(O)Cc1cccc(Oc2cnc3[nH]cc(C(=O)c4ccc(F)cc4Cl)c3c2)c1 [P-0039, {3-[3-(2-Chloro-4-fluoro-benzoyl)-1H-pyrrolo[2,3-b]pyridin-5-yloxy]-phenyl}-acetic acid] | IC50 (Btk): ≤ 10 µM |
| ≤ 10 | ≤ 10 | ≤ 10 | – | – | ≤ 10 | O=C(c1ccc2cc[nH]c2c1)c1c[nH]c2ncc(OC3CCCC3)cc12 [P-0040, (5-Cyclopentyloxy-1H-pyrrolo[2,3-b]pyridin-3-yl)-(1H-indol-6-yl)-methanone] | IC50 (Flt1): ≤ 10 µM; IC50 (Jnk1): ≤ 10 µM |
| ≤ 10 | – | – | ≤ 10 | ≤ 10 | – | CCCS(=O)(=O)Nc1ccc(F)c(C(=O)c2c[nH]c3ncc(OCCN4CCOCC4)cc23)c1F [P-0041, Propane-1-sulfonic acid {2,4-difluoro-3-[5-(2-morpholin-4-yl-ethoxy)-1H-pyrrolo[2,3-b]pyridine-3-carbonyl]-phenyl}-amide] | IC50 (Src): ≤ 10 µM |
| ≤ 10 | ≤ 10 | ≤ 10 | ≤ 10 | ≤ 10 | ≤ 10 | CCCS(=O)(=O)Nc1ccc(F)c(C(=O)c2c[nH]c3ncc(OC4CCOCC4)cc23)c1F [P-0045, Propane-1-sulfonic acid {2,4-difluoro-3-[5-(tetrahydro-pyran-4-yloxy)-11H-pyrrolo[2,3-b]pyridine-3-carbonyl]-phenyl}-amide] | IC50 (Src): ≤ 10 µM |
| ≤ 10 | – | – | ≤ 10 | ≤ 10 | – | CCCS(=O)(=O)Nc1ccc(F)c(C(=O)c2c[nH]c3ncc(S(=O)(=O)c4ccc(C)cc4)cc23)c1F [P-0047, Propane-1-sulfonic acid {2,4-difluoro-3-[5-(toluene-4-sulfonyl)-1H-pyrrolo[2,3-b]pyridine-3-carbonyl]-phenyl}-amide] | – |

— patent US8268858B2, “Compounds and methods for kinase modulation, and indications therefor” (Plexxikon Inc., priority 2006, dated 2012)
